Source: the kinase profiling compilation of Christmann-Franck et al. (2016)

Legend:
Experiment in all cases: KINOMEscan competition binding
Details in all cases: compound 10.0 µM
MAP4K1 (human) = MAP4K1 (human) (UniProt Q92918)
PRKD3 (human) = PRKD3 (human) (UniProt O94806)
STK38L (human) = STK38L (human) (UniProt Q9Y2H1)
STK11 (human) = STK11 (human) (UniProt Q15831)
FLT3 (human) = FLT3 (human) (UniProt P36888)
ROCK2 (human) = ROCK2 (human) (UniProt O75116)
MAP3K1 (human) = MAP3K1 (human) (UniProt Q13233)
FES (human) = FES (human) (UniProt P07332)
MAPK14 (human) = MAPK14 (human) (UniProt Q16539)
PIM1 (human) = PIM1 (human) (UniProt P11309)
MAPKAPK2 (human) = MAPKAPK2 (human) (UniProt P49137)
DCLK1 (human) = DCLK1 (human) (UniProt O15075)
PKN3 (M.tuberculosis) = PKN3 (M.tuberculosis) (UniProt Q6P5Z2)
NEK3 (human) = NEK3 (human) (UniProt P51956)
MAPK6 (human) = MAPK6 (human) (UniProt Q16659)
PHKG2 (human) = PHKG2 (human) (UniProt P15735)
RIOK3 (human) = RIOK3 (human) (UniProt O14730)
[1] = target: JAK3 JH1 catalytic (human) (UniProt P52333)
EPHB2 (human) = EPHB2 (human) (UniProt P29323)
DSTYK (human) = DSTYK (human) (UniProt Q6XUX3)
ACVR1B (human) = ACVR1B (human) (UniProt P36896)
TYRO3 (human) = TYRO3 (human) (UniProt Q06418)
STK10 (human) = STK10 (human) (UniProt O94804)
STK35 (human) = STK35 (human) (UniProt Q8TDR2)
PRPF4B (human) = PRPF4B (human) (UniProt Q13523)
KDR (human) = KDR (human) (UniProt P35968)
MAP2K3 (human) = MAP2K3 (human) (UniProt P46734)
PRKD1 (human) = PRKD1 (human) (UniProt Q15139)
CDK16 (human) = CDK16 (human) (UniProt Q00536)
TNK1 (human) = TNK1 (human) (UniProt Q13470)
TBK1 (human) = TBK1 (human) (UniProt Q9UHD2)
OXSR1 (human) = OXSR1 (human) (UniProt O95747)
ULK3 (human) = ULK3 (human) (UniProt Q6PHR2)
[2] = tested on: PIK3CA (human), P42336 [H1047Y]
IKBKB (human) = IKBKB (human) (UniProt O14920)
MAP2K2 (human) = MAP2K2 (human) (UniProt P36507)
TNIK (human) = TNIK (human) (UniProt Q9UKE5)
CDC2L2 (human) = CDC2L2 (human) (UniProt Q9UQ88)
ZAP70 (human) = ZAP70 (human) (UniProt P43403)
YES1 (human) = YES1 (human) (UniProt P07947)

Sequence of CDK16 (human) (Q00536 whole entry, looked up): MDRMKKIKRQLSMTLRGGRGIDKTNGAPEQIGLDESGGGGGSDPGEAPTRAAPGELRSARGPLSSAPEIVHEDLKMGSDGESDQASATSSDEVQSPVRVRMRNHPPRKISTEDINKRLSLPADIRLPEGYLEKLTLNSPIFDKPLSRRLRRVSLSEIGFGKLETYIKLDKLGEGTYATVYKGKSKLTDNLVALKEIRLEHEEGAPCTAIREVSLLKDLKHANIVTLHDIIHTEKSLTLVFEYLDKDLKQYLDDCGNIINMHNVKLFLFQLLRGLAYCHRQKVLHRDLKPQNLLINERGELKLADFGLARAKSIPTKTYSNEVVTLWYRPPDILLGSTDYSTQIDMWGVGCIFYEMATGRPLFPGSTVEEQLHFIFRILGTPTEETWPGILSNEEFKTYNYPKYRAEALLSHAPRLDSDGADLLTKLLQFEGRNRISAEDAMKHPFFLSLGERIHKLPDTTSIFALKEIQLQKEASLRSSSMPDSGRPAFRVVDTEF
Sequence of IKBKB (human) (O14920 whole entry, looked up): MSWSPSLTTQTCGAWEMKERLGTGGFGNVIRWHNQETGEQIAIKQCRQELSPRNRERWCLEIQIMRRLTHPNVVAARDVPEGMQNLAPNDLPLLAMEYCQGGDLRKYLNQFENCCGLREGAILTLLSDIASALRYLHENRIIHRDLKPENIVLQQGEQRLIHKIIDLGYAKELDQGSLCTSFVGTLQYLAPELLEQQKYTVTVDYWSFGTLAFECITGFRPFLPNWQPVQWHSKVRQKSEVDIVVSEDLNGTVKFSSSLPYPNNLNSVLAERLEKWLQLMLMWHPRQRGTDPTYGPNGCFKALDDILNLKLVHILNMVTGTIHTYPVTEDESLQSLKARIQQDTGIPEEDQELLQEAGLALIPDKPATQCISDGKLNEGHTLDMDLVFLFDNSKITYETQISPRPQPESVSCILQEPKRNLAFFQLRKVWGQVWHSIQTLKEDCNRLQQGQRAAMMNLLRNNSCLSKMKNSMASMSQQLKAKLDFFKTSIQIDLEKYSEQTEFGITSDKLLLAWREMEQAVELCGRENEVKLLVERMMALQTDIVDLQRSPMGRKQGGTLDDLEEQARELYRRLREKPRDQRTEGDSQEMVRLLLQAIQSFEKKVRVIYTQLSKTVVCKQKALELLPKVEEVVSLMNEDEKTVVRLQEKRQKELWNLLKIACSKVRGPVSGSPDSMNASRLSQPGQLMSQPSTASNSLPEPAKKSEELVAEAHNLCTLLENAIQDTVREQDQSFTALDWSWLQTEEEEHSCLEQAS
Sequence of PRKD1 (human) (Q15139 whole entry, looked up): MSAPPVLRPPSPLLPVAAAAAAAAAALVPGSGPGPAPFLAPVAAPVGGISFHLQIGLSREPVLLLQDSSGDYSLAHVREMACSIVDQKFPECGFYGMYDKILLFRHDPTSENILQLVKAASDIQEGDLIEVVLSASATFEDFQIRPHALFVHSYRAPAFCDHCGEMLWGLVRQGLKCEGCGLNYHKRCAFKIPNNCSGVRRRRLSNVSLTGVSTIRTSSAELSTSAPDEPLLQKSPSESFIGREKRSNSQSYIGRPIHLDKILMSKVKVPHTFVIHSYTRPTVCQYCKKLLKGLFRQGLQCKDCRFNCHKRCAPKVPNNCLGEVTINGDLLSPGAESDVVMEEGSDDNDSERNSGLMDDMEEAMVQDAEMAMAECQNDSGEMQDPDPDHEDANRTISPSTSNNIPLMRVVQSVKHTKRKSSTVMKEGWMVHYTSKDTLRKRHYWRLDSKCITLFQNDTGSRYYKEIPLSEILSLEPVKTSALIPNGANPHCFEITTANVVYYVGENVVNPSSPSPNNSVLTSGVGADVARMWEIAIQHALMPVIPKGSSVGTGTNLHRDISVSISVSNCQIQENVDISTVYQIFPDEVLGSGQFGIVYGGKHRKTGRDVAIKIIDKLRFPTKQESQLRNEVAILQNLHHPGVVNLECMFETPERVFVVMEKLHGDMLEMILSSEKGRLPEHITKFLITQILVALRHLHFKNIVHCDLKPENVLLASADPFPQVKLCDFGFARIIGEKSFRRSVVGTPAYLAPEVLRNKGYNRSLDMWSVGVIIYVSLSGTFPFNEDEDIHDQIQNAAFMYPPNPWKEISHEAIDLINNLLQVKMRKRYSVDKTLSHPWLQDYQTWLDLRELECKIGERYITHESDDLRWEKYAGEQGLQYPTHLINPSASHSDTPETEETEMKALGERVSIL
Sequence of KDR (human) (P35968 whole entry, looked up): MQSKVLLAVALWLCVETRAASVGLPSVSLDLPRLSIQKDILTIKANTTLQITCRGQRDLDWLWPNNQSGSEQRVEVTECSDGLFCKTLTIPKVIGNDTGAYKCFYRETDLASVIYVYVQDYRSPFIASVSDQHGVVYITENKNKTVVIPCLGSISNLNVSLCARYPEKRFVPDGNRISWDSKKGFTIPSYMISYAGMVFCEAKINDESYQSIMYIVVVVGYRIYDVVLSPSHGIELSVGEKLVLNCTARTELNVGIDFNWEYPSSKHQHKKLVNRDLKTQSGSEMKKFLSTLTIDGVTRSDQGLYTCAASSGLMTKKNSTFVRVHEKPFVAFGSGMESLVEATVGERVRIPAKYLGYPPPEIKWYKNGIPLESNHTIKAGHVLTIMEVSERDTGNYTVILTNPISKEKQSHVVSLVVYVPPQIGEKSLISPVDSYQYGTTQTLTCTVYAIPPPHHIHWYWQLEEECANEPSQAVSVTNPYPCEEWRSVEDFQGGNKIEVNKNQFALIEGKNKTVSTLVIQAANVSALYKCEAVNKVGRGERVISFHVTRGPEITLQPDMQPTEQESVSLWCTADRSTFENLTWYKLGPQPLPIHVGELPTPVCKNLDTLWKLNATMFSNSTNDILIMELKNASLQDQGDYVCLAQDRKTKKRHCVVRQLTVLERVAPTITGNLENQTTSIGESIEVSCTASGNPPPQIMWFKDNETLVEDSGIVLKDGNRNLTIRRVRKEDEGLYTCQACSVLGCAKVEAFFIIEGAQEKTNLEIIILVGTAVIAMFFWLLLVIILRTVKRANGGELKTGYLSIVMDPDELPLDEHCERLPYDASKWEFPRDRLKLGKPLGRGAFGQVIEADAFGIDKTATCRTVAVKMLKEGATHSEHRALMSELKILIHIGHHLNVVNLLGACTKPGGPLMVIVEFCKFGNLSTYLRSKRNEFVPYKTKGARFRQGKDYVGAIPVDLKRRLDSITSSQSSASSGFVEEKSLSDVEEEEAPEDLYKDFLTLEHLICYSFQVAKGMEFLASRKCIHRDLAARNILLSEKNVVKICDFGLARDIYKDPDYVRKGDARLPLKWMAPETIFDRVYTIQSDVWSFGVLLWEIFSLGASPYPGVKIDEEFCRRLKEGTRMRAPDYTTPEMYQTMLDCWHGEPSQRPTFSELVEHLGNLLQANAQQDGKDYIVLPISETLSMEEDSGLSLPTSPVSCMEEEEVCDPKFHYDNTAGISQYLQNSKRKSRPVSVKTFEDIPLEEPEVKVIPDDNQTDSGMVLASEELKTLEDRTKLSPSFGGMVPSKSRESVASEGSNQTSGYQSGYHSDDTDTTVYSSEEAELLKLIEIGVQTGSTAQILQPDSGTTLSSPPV
Sequence of PKN3 (M.tuberculosis) (Q6P5Z2 whole entry, looked up): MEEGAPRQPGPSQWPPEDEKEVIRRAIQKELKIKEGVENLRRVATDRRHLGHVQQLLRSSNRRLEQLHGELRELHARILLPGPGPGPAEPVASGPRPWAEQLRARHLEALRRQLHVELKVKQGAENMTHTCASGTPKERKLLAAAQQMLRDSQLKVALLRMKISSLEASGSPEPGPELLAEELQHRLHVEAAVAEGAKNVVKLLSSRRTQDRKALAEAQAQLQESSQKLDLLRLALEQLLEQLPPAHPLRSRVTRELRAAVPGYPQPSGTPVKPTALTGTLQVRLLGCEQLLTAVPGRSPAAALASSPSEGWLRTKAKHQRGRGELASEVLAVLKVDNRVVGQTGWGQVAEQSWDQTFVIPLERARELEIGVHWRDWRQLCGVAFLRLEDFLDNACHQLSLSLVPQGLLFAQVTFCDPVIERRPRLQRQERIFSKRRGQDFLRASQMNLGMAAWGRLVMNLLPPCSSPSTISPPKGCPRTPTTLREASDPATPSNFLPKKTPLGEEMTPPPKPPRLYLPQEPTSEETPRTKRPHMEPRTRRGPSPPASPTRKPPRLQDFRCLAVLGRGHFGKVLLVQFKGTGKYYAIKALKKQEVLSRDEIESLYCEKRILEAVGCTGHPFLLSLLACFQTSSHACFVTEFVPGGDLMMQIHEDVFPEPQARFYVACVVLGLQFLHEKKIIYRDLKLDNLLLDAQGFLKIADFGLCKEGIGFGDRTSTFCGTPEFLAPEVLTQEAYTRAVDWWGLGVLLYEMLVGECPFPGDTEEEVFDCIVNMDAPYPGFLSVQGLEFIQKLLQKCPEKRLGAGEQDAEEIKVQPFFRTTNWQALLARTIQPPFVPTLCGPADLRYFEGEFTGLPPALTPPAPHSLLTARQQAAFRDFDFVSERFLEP
Sequence of STK11 (human) (Q15831 whole entry, looked up): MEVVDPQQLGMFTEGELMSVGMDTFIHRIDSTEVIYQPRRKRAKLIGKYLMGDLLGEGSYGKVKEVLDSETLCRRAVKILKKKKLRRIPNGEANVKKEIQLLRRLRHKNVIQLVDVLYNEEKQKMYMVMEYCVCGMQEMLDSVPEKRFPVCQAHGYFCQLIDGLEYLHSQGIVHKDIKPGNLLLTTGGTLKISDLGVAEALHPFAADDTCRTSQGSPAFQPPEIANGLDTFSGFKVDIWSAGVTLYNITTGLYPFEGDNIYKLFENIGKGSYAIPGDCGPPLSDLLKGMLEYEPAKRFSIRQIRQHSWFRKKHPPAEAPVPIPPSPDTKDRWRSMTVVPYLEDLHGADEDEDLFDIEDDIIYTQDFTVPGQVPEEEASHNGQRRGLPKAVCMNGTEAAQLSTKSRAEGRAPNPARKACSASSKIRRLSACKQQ

SMILES | kinase still bound, per cent of control (MAP4K1 (human)) [%] | kinase still bound, per cent of control (PRKD3 (human)) [%] | kinase still bound, per cent of control (STK38L (human)) [%] | kinase still bound, per cent of control (STK11 (human)) [%] | kinase still bound, per cent of control (FLT3 (human)) [%] | kinase still bound, per cent of control (ROCK2 (human)) [%] | kinase still bound, per cent of control (MAP3K1 (human)) [%] | kinase still bound, per cent of control (MAPK14 (human)) [%] | kinase still bound, per cent of control (PIM1 (human)) [%] | kinase still bound, per cent of control (MAPKAPK2 (human)) [%] | kinase still bound, per cent of control (PKN3 (M.tuberculosis)) [%] | kinase still bound, per cent of control (NEK3 (human)) [%] | kinase still bound, per cent of control (MAPK6 (human)) [%] | kinase still bound, per cent of control (PHKG2 (human)) [%] | kinase still bound, per cent of control (RIOK3 (human)) [%] | kinase still bound, per cent of control (EPHB2 (human)) [%] | kinase still bound, per cent of control (DSTYK (human)) [%] | kinase still bound, per cent of control (ACVR1B (human)) [%] | kinase still bound, per cent of control (TYRO3 (human)) [%] | kinase still bound, per cent of control (STK10 (human)) [%] | also measured
COc1cc(N2CCN(C)CC2)ccc1Nc1nc(N)c(C(=O)c2c(Cl)cccc2Cl)s1 | 90 | 70 | 84 | 100 | 96 | 88 | 100 | 94 | 100 | 100 | 80 | 89 | 100 | 43 | 100 | 100 | 52 | 100 | 100 | 40 | kinase still bound, per cent of control (FES (human)): 45%; kinase still bound, per cent of control (DCLK1 (human)): 3%; kinase still bound, per cent of control [1]: 100%; kinase still bound, per cent of control (STK35 (human)): 100%; kinase still bound, per cent of control (PRPF4B (human)): 100%; kinase still bound, per cent of control (KDR (human)): 97%; kinase still bound, per cent of control (MAP2K3 (human)): 79%; kinase still bound, per cent of control (PRKD1 (human)): 44%; kinase still bound, per cent of control (CDK16 (human)): 62%; kinase still bound, per cent of control (TNK1 (human)): 100%; kinase still bound, per cent of control (TBK1 (human)): 100%; kinase still bound, per cent of control (OXSR1 (human)): 100%; kinase still bound, per cent of control (ULK3 (human)): 100%; kinase still bound, per cent of control [2]: 100%; kinase still bound, per cent of control (IKBKB (human)): 96%; kinase still bound, per cent of control (MAP2K2 (human)): 93%; kinase still bound, per cent of control (TNIK (human)): 69%
C[C@@H](Oc1cc(-n2cnc3ccc(CN4CCN(C)CC4)cc32)sc1C(N)=O)c1ccccc1C(F)(F)F | 83 | 12 | 100 | 90 | 11 | 16 | 3.7 | 100 | 3 | 100 | 27 | 100 | 100 | 43 | 6.6 | 99 | 34 | 97 | 100 | 0 | kinase still bound, per cent of control (FES (human)): 88%; kinase still bound, per cent of control (CDC2L2 (human)): 100%; kinase still bound, per cent of control (DCLK1 (human)): 40%; kinase still bound, per cent of control [1]: 10%; kinase still bound, per cent of control (STK35 (human)): 76%; kinase still bound, per cent of control (PRPF4B (human)): 39%; kinase still bound, per cent of control (KDR (human)): 100%; kinase still bound, per cent of control (MAP2K3 (human)): 52%; kinase still bound, per cent of control (PRKD1 (human)): 20%; kinase still bound, per cent of control (CDK16 (human)): 100%; kinase still bound, per cent of control (TNK1 (human)): 87%; kinase still bound, per cent of control (TBK1 (human)): 84%; kinase still bound, per cent of control (OXSR1 (human)): 98%; kinase still bound, per cent of control (ULK3 (human)): 100%; kinase still bound, per cent of control (ZAP70 (human)): 69%; kinase still bound, per cent of control [2]: 32%; kinase still bound, per cent of control (IKBKB (human)): 74%; kinase still bound, per cent of control (MAP2K2 (human)): 79%; kinase still bound, per cent of control (TNIK (human)): 78%
O=C(O)c1ccc(Nc2ncc3c(n2)-c2ccc(Cl)cc2C(c2c(F)cccc2F)=NC3)cc1 | 71 | 96 | 100 | 92 | 80 | 89 | 100 | 93 | 71 | 100 | 96 | 100 | 92 | 73 | 100 | 50 | 100 | 94 | 46 | 6.7 | kinase still bound, per cent of control (YES1 (human)): 3.9%; kinase still bound, per cent of control (FES (human)): 100%; kinase still bound, per cent of control (CDC2L2 (human)): 100%; kinase still bound, per cent of control (PRPF4B (human)): 100%; kinase still bound, per cent of control (PRKD1 (human)): 92%; kinase still bound, per cent of control (CDK16 (human)): 100%; kinase still bound, per cent of control (TNK1 (human)): 16%; kinase still bound, per cent of control (TBK1 (human)): 100%; kinase still bound, per cent of control (OXSR1 (human)): 94%; kinase still bound, per cent of control (ULK3 (human)): 57%; kinase still bound, per cent of control (ZAP70 (human)): 100%; kinase still bound, per cent of control [2]: 27%; kinase still bound, per cent of control (IKBKB (human)): 100%; kinase still bound, per cent of control (MAP2K2 (human)): 99%; kinase still bound, per cent of control (TNIK (human)): 61%
CCOc1cc2ncc(C#N)c(Nc3ccc(OCc4ccccn4)c(Cl)c3)c2cc1NC(=O)/C=C/CN(C)C | 45 | 65 | 100 | 94 | 100 | 86 | 96 | 91 | 100 | 89 | 100 | 41 | 100 | 92 | 97 | 86 | 69 | 100 | 100 | 0 | kinase still bound, per cent of control (YES1 (human)): 26%; kinase still bound, per cent of control (CDC2L2 (human)): 100%; kinase still bound, per cent of control (DCLK1 (human)): 100%; kinase still bound, per cent of control [1]: 100%; kinase still bound, per cent of control (PRPF4B (human)): 92%; kinase still bound, per cent of control (KDR (human)): 94%; kinase still bound, per cent of control (MAP2K3 (human)): 100%; kinase still bound, per cent of control (PRKD1 (human)): 74%; kinase still bound, per cent of control (TNK1 (human)): 100%; kinase still bound, per cent of control (TBK1 (human)): 100%; kinase still bound, per cent of control (OXSR1 (human)): 54%; kinase still bound, per cent of control (ULK3 (human)): 100%; kinase still bound, per cent of control (ZAP70 (human)): 87%; kinase still bound, per cent of control (IKBKB (human)): 100%; kinase still bound, per cent of control (MAP2K2 (human)): 0.5%; kinase still bound, per cent of control (TNIK (human)): 6%
